According to patent US20160166631A1, “NUTRACEUTICAL COMBINATION FOR PREVENTION AND TREATMENT OF TYPE 2 DIABETES” (priority 2014, published 2016):

Test system: Type 2 diabetes patients
Experiment: Clinical trials: DiabetainC co-administered with Metformin or other anti-diabetes medications (Hb A1c, fasting blood glucose)
Assay type: in vivo, human
Method: Clinical trials have shown that “DiabetainC” supplements in accordance with this disclosure, when administered to Type 2 diabetes patients, lowers Hb A1c by an average of 1.7% when co-administered with Metformin, as compared with a 1.2% lowering of Hb A1c when Metformin is used by itself. This is a significant improvement. A 0.5% to 1% lowering of Hb A1c correlates with a 20% reduction in morbidity.
Clinical trials have shown an advantageous decrease in fasting blood glucose (FBG) of 72 mg/dL when co-administered with Metformin, as compared with a lowering of 48 mg/dL when Metformin is administered alone. […] These improvements are significant, as every 15 mg/dL to 40 mg/dL decrease in FBG reduces diabetes related heart diseases up to 50%.

SMILES: CN(C)C(=N)N=C(N)N [Metformin]
- lowering of fasting blood glucose (FBG) (Metformin administered alone): 48 mg/dL
- lowering of Hb A1c (Type 2 diabetes patients, Metformin used by itself): 1.2%
